In PubChem BioAssay AID2060498 (Molecular Pharmacology Branch, DTP, NCI, 2025):

Test system: 171881-019-R-J1-PDC tumor spheroids, viability
Experiment: Anticancer human tumor 171881-019-R-J1-PDC patient-derived invasive breast carcinoma cell line growth inhibition [GQUAD]
Settings: spheroids with HUVEC and MSC; for IC50: curve of first compound; for viability, T/C: stronger effect = lower value
Procedure, shortened: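 Tumor cells were grown as complex spheroids with HUVEC endothelial cells and mesenchymal stem cells as stroma. G-quadruplex stabilizers were combined with targeted agents over half-log dilutions from near the clinical Cmax, or from 10 microM.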
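Note: spheroids exposed to compounds for 7 days.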
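Throughout, for viability, T/C: 100% = DMSO vehicle control viability.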

CC[C@@]1(O)C(=O)OCc2c1cc1n(c2=O)Cc2cc3c(CN(C)C)c(O)ccc3nc2-1 + CN(C)c1ccc(Nc2c3ccc(NC(=O)CCN4CCCC4)cc3nc3cc(NC(=O)CCN4CCCC4)ccc23)cc1
IC50 (second compound 0.0316 µM): 255 nM | IC50 (second compound 0.1 µM): 251 nM | IC50 (second compound 0.316 µM): 189 nM | IC50 (second compound 1 µM): < 0.999 nM | IC50 (second compound 3.16 µM): < 0.999 nM | IC50 (second compound 10 µM): < 0.999 nM | viability, T/C (second compound 0.0316 µM, first compound 0.000999 µM): 110% | viability, T/C (second compound 0.0316 µM, first compound 0.00316 µM): 108% | viability, T/C (second compound 0.0316 µM, first compound 0.00999 µM): 105% | viability, T/C (second compound 0.0316 µM, first compound 0.0316 µM): 99.5% | viability, T/C (second compound 0.0316 µM, first compound 0.0999 µM): 57.8% | viability, T/C (second compound 0.0316 µM, first compound 0.316 µM): 48.3% | viability, T/C (second compound 0.1 µM, first compound 0.000999 µM): 110% | viability, T/C (second compound 0.1 µM, first compound 0.00316 µM): 112% | viability, T/C (second compound 0.1 µM, first compound 0.00999 µM): 93.9% | viability, T/C (second compound 0.1 µM, first compound 0.0316 µM): 115% | viability, T/C (second compound 0.1 µM, first compound 0.0999 µM): 61.9% | viability, T/C (second compound 0.1 µM, first compound 0.316 µM): 47% | viability, T/C (second compound 0.316 µM, first compound 0.000999 µM): 85% | viability, T/C (second compound 0.316 µM, first compound 0.00316 µM): 85.3% | viability, T/C (second compound 0.316 µM, first compound 0.00999 µM): 63.3% | viability, T/C (second compound 0.316 µM, first compound 0.0316 µM): 70.7% | viability, T/C (second compound 0.316 µM, first compound 0.0999 µM): 60.6% | viability, T/C (second compound 0.316 µM, first compound 0.316 µM): 42.4% | viability, T/C (second compound 1 µM, first compound 0.000999 µM): 23.9% | viability, T/C (second compound 1 µM, first compound 0.00316 µM): 14.9% | viability, T/C (second compound 1 µM, first compound 0.00999 µM): 17.4% | viability, T/C (second compound 1 µM, first compound 0.0316 µM): 11.6% | viability, T/C (second compound 1 µM, first compound 0.0999 µM): 10.3% | viability, T/C (second compound 1 µM, first compound 0.316 µM): 14.4% | viability, T/C (second compound 3.16 µM, first compound 0.000999 µM): 2.23% | viability, T/C (second compound 3.16 µM, first compound 0.00316 µM): 1.91% | viability, T/C (second compound 3.16 µM, first compound 0.00999 µM): 2.49% | viability, T/C (second compound 3.16 µM, first compound 0.0316 µM): 1.45% | viability, T/C (second compound 3.16 µM, first compound 0.0999 µM): 2.03% | viability, T/C (second compound 3.16 µM, first compound 0.316 µM): 1.84% | viability, T/C (second compound 10 µM, first compound 0.000999 µM): 0.21% | viability, T/C (second compound 10 µM, first compound 0.00316 µM): 1.05% | viability, T/C (second compound 10 µM, first compound 0.00999 µM): 0.53% | viability, T/C (second compound 10 µM, first compound 0.0316 µM): 0.24% | viability, T/C (second compound 10 µM, first compound 0.0999 µM): 0.6% | viability, T/C (second compound 10 µM, first compound 0.316 µM): 0.58%
